These results are taken from ChEMBL document CHEMBL5727333, “3-amino-1,5,6,7-tetrahydro-4H-indol-4-ones” (2019).

Mitotic checkpoint serine/threonine-protein kinase BUB1, sequence (O43683 whole entry): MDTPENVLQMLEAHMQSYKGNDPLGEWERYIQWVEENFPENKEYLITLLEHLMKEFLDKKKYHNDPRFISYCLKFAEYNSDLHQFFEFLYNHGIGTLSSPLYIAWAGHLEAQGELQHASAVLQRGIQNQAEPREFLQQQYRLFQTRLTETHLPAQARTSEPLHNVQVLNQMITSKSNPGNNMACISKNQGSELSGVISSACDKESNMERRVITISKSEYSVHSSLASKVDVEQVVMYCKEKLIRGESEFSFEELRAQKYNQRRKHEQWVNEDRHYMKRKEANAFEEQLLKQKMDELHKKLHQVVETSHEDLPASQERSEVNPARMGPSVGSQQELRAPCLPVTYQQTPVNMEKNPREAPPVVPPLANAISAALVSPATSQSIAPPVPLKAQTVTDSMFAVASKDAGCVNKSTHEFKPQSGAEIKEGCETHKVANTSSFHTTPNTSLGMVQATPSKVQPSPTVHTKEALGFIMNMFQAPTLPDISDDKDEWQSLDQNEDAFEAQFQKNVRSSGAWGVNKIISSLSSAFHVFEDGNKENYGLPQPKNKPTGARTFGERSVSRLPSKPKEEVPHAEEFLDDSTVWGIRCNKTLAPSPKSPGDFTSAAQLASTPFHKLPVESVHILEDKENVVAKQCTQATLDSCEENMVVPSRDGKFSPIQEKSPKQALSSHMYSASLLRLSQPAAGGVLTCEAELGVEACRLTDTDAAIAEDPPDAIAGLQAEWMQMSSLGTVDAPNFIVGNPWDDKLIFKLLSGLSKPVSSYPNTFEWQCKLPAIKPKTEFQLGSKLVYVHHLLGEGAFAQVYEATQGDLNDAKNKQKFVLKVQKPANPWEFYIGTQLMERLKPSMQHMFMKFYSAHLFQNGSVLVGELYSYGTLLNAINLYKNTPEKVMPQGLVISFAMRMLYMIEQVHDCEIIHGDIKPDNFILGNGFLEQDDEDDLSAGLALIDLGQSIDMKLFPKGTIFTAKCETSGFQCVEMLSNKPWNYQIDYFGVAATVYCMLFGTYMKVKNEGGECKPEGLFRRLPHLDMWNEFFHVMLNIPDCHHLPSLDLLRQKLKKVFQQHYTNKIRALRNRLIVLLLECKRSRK

The assay has as its target Mitotic checkpoint serine/threonine-protein kinase BUB1 (Homo sapiens, UniProt O43683). The assay can be described thus: Kinase Assay: In a typical assay 11 different concentrations of each compound (0.1 nM, 0.33 nM, 1.1 nM, 3.8 nM, 13 nM, 44 nM, 0.15 μM, 0.51 μM, 1.7 μM, 5.9 μM and 20 μM) were tested in duplicate within the same microtiter plate. To this end, 100-fold concentrated compound solutions (in DMSO) were previously prepared by serial dilution (1:3.4) of 2 mM stocks in a clear low volume 384-well source microtiter plate (Greiner Bio-One, Frickenhausen, Germany), from which 50 nl of compounds were transferred into a black low volume test microtiter plate from the same supplier. […] The resulting mixture (5 μL final volume) was incubated at 22° C. during 60 min., and the reaction was stopped by the addition of 5 μL of an aqueous EDTA-solution (50 mM EDTA, in 100 mM HEPES pH 7.5 and 0.2% (w/v) bovine serum albumin) which also contained the TR-FRET detection reagents (0.2 μM streptavidin-XL665 [Cisbio Bioassays, Codolet, France] and 1 nM anti-phosho-Serine antibody [Merck Millipore, cat. #35-002] and 0.4 nM LANCE EU-W1024 labeled anti-mouse IgG antibody [Perkin-Elmer, product no. AD0077, alternatively a Terbium-cryptate-labeled anti-mouse IgG antibody from Cisbio Bioassays can be used]). The stopped reaction mixture was further incubated 1 h at 22° C. in order to allow the formation of complexes between peptides and detection reagents.
For `CC(=O)Nc1cc(-c2[nH]c3c(c2Nc2ccc(F)cc2)C(=O)CCC3)ccn1`, the IC50 came to 58.9 nM. `CC1(C)CC(=O)c2c([nH]c(-c3ccnc(Nc4cccc(F)c4)c3)c2Nc2cccc(F)c2)C1`: the IC50 came out at 497 nM. With `Cc1cccc(Nc2c(-c3ccncc3)[nH]c3c2C(=O)CC(C)(C)C3)c1F`, the IC50 was 85.5 nM. `CC1(C)CC(=O)c2c([nH]c(-c3ccnc(NS(C)(=O)=O)c3)c2Nc2ccccc2)C1`: the IC50 came out at 733 nM. The figure for `CC1(C)CC(=O)c2c([nH]c(-c3ccnc(Cl)c3)c2Nc2ccccc2)C1` is 53.6 nM. For the compound `CC1(C)CC(=O)c2c([nH]c(-c3ccnc(Br)c3)c2Nc2ccccc2)C1`, the IC50 was found to be 99.8 nM.

For `CS(=O)(=O)Nc1cc(-c2[nH]c3c(c2Nc2ccccc2)C(=O)CCC3)ccn1`, the IC50 came out at 6660 nM. The figure for `CC(C)Oc1cccc(Nc2c(-c3ccncc3)[nH]c3c2C(=O)CC(C)(C)C3)c1` is 1170 nM.
